In patent US10730881B2, “Fused pyrimidine derivatives” (Hoffmann-La Roche Inc., priority 2016, dated 2020):

Target: γ-secretase (Homo sapiens, UniProt P49768)
Experiment: Cellular γ-secretase assay (inhibition of Aβ42 secretion, AlphaLisa)
Format: cell-based
Details: human neuroglioma H4 cells overexpressing human APP695 Swedish double mutation, 24 hr compound incubation
Method: Human neuroglioma H4 cells overexpressing human APP695 with the Swedish double mutation (K595N/M596L) were plated at 30,000 cells/well/100 μl in 96-well plates in IMDM media containing 10% FCS, 0.2 mg/l Hygromycin B and incubated at 37° C., 5% CO2. 3-4 hr post plating, compounds are a diluted in media and 50 μl is added as 1.5-fold concentrate to achieve the final concentration. Compound incubation is performed for 24 hr. Final doses typically range from 4 μM down to 0.0013 μM in half-log steps resulting in a eight point dose response curve. Appropriate controls using vehicle only and reference compound were applied to this assay. The final concentration of Me2SO was 0.4%. After incubation at 37° C., 5% CO2, the supernatant was subjected to quantification of secreted Aβ42 by the means of an AlphaLisa assay kit (Human Amyloid beta 1-42 Kit: Cat # A[…], Perkin Elmer). 20 μl of the cell culture supernatant was transferred to an assay plate. […] The assay plate was then read on a Paradigm AlphaLisa Reader using the build-in program with excitation at 680 nm and emission at 570 nm. The measured signals were then used to calculate IC50 values for inhibition of Aβ42 secretion by nonlinear regression fit analysis using XLfit 5.3 software (IDBS).

Question: `CNc1nc(N[C@@H]2[C@@H]3CC[C@H]2CN(c2cc(C)ncn2)C3)nc2c1C(C)(C)CN2C1CC(F)(F)C1` [Example 13, 7-(3,3-Difluorocyclobutyl)-N4,5,5-trimethyl-N2-((1R,5S,8s)-3-(6-methylpyrimidin-4-yl)-3-azabicyclo[3.2.1]octan-8-yl)-6,7-dihydro-5H-pyrrolo[2,3-d]pyrimidine-2,4-diamine] was tested. Which EC50 did it give?
Answer: 36 nM
